# Reference: patent publication US4156016A, “Indole compounds and process for their preparation” (Hoffmann-La Roche Inc., priority 1977, dated 1979)
# Read-outs that look alike come from different tables or passages of the source.
# Experiments:
# serum PGF2α = assay: Inhibition of prostaglandin formation: serum PGF2α by radioimmunoassay (rats); format: in vivo, male rats; conditions: for ED50: Rattus norvegicus, 1 h, rats
# [1] = Central and peripheral pharmacological activity (statement)
# [2] = system: Collagen-Induced Platelet Aggregation; assay: Effect of compounds in whole blood: collagen-induced platelet aggregation after incubation in whole blood; format: cell-based, human; conditions: for Δ light transmission: mean of duplicate determinations; for inhibition at 1 µM / inhibition at 5 µM / inhibition at 10 µM / inhibition at 25 µM / inhibition at 50 µM / inhibition at 100 µM: read-out: percent inhibition
# Protocol: Aliquots of citrated human blood (10 ml.) were exposed to different concentrations of the "nitrile" by mechanically shaking at room temperature for 5 minutes.
# [3] = system: Collagen-Induced Platelet Aggregation; assay: Inhibition of collagen-induced platelet aggregation in human platelet-rich plasma; format: cell-based; conditions: for inhibition at 2.5 µM / inhibition at 5 µM / inhibition at 15 µM / inhibition at 25 µM / inhibition at 50 µM: read-out: Percent Inhibition
# Protocol: (§1) Venous blood was collected from human volunteers in siliconized 20 ml. […] Platelet rich plasma (PRP) was separated from the red blood cells by centrifugation at 180×g for 15 minutes at room temperature. Platelet poor plasma (PPP) was prepared by centrifuging PRP at 1000×g for 2 minutes.
# (§2) Techniques established by Born et al., J. Physiol. […] PRP (1 ml.) was added to a siliconized cuvette containing a siliconized stirring bar and placed in a densitometer maintained at 37° C. and stirred at 1000 RPM. Various concentrations of test compounds were added in 50 μl of saline and incubated with PRP for 5 minutes. Aggregation was initiated by the addition of sufficient concentrations of ADP (Sigma Chemical Co.), epinephrine HCl (Parke, Davis & Co., Detroit, Michigan), or human mammary gland collagen (obtained from Roosevelt Hospital, N.Y.) to give about 60% of maximum aggregation response. The light transmission through PPP was used to determine maximum response. The percent inhibition of aggregation caused by the drug was calculated from the strip chart recordings at the point of maximum collagen response.
# [4] = Gastric ulcer induction (rats); design: species or system male Wistar rats; conditions: rat, in vivo, po
# Protocol: The test is a modification of that described by Brodie et al., Gastroenterology, 53, pages 604-610 (1967). Male Wistar rats (Royal Hart Laboratories) were deprived of food for 18 hours prior to testing. Tap water was permitted ad libitum. Test compounds were administered orally four hours to autopsy. The rats were sacrificed under ethyl ether anesthesia, opened along the ventral midline and the stomachs removed. The stomach was divided along the lesser curvature, everted, rinsed in saline, and examined for the presence of focal hemorrhage. Ulcers were rated on an all or none basis for incidence and, in addition, each stomach is graded for severity of ulcers formed. Ulcer scores: 0=none, 1=trace, 2=mild, 3=moderate, and 4=severe. The results of the ulcer scores obtained were subjected to statistical analysis by the student `t` test.
# [5] = system: arachidonic acid induced diarrhea; assay: Arachidonic acid diarrhea prevention (mice); format: in vivo, Carworth Farm CF-1 male mice; conditions: Mus musculus, po
# Protocol: Carworth Farm CF-1 male mice weighing 18-20 grams were administered the test compound by either the oral or intraperitoneal route one hour prior to the intraperitoneal administration of 4 mg/kg of arachidonic acid (Hoffmann-La Roche Inc.). […] The diarrhea was graded on paper towels as follows: 0=solid pellet or no bowel movement; 1=slightly soft pellet with little or no wet ring formation; 2=moderately soft pellet with definite wet ring formation; 3=soft pellet with large wet ring formation; and 4=amorphous pellet with very large wet ring formation.
# The calculation of the ED50 was made according to the method of Miller et al., Proc. Soc.
# [6] = system: human blood-platelet aggregation; assay: Inhibition of human blood-platelet aggregation (general statement)
# [7] = system: Epinephrine induced aggregation; assay: Inhibition of epinephrine-induced platelet aggregation (second wave) in human platelet-rich plasma; format: cell-based; conditions: for inhibition at 10 µM / inhibition at 20 µM / inhibition at 25 µM / inhibition at 50 µM / inhibition at 100 µM: Homo sapiens, Platelet, read-out: Percent Inhibition
# Protocol: as §1, §2
# [8] = Ulcerogenicity (general statement)
# prostaglandin formation = assay: Inhibition of prostaglandin formation (general statement)
# [9] = Homo sapiens, Platelet, 5 μM, Expt. I
# [10] = Homo sapiens, Platelet, 5 μM, Expt. II
# [11] = Homo sapiens, Platelet, 25 μM, Expt. I
# [12] = Homo sapiens, Platelet, 25 μM, Expt. II
# [13] = Homo sapiens, Platelet, 50 μM, Expt. I
# [14] = Homo sapiens, Platelet, 50 μM, Expt. II
compound,measurement,setting,value
"N#Cc1[nH]c2ccc(C(O)(C(F)(F)F)C(F)(F)F)cc2c1-c1ccccc1 [nitrile, 3-Phenyl-5-[2,2,2-trifluoro-1-hydroxy-1-(trifluoromethyl)ethyl]indole-2-carbonitrile]",serum PGF2α,"serum PGF2α; 1 mg/kg i.p., ± SE",27 ± 2.9 ng/mL
same,serum PGF2α,"serum PGF2α; 1 mg/kg p.o., ± SE",28 ± 4.6 ng/mL
same,serum PGF2α,"serum PGF2α; 3 mg/kg i.p., ± SE, p <0.05",18 ± 1.5 ng/mL
same,serum PGF2α,"serum PGF2α; 3 mg/kg p.o., ± SE",19 ± 4.2 ng/mL
same,serum PGF2α,"serum PGF2α; 10 mg/kg i.p., ± SE, p <0.01",18 ± 2.9 ng/mL
same,serum PGF2α,"serum PGF2α; 10 mg/kg p.o., ± SE, p <0.001",12 ± 2.4 ng/mL
same,serum PGF2α,"serum PGF2α; 30 mg/kg i.p., ± SE, p <0.001",2 ± 1.6 ng/mL
same,serum PGF2α,serum PGF2α; 30 mg/kg p.o.,0 ng/mL
same,serum PGF2α,serum PGF2α; 100 mg/kg i.p.,0 ng/mL
same,serum PGF2α,serum PGF2α; 100 mg/kg p.o.,0 ng/mL
same,ED50,serum PGF2α; ip,15 mg/kg
same,ED50,serum PGF2α; po,10 mg/kg
same,central and peripheral pharmacological activity (in words),[1],devoid of central and peripheral pharmacological activity
same,Δ light transmission,"[2]; 1 μM, Expt. I",18 units
same,Δ light transmission,"[2]; 1 μM, Expt. II",19 units
same,Δ light transmission,"[2]; 1 μM, Expt. III",27 units
same,Δ light transmission,"[2]; 5 μM, Expt. I",14 units
same,Δ light transmission,"[2]; 5 μM, Expt. II",15 units
same,Δ light transmission,"[2]; 5 μM, Expt. III",20 units
same,Δ light transmission,"[2]; 10 μM, Expt. I",13 units
same,Δ light transmission,"[2]; 10 μM, Expt. II",13 units
same,Δ light transmission,"[2]; 10 μM, Expt. III",17 units
same,Δ light transmission,"[2]; 25 μM, Expt. I",9 units
same,Δ light transmission,"[2]; 25 μM, Expt. II",10 units
same,Δ light transmission,"[2]; 25 μM, Expt. III",13 units
same,Δ light transmission,"[2]; 50 μM, Expt. I",8 units
same,Δ light transmission,"[2]; 50 μM, Expt. II",9 units
same,Δ light transmission,"[2]; 50 μM, Expt. III",10 units
same,Δ light transmission,"[2]; 100 μM, Expt. I",4 units
same,Δ light transmission,"[2]; 100 μM, Expt. II",4 units
same,Δ light transmission,"[2]; 100 μM, Expt. III",6 units
same,inhibition at 1 µM,"[2]; Homo sapiens, Platelet, 1 μM, Expt. I",10%
same,inhibition at 1 µM,"[2]; Homo sapiens, Platelet, 1 μM, Expt. II",9.5%
same,inhibition at 1 µM,"[2]; Homo sapiens, Platelet, 1 μM, Expt. III",10%
same,inhibition at 5 µM,[2]; [9],30%
same,inhibition at 5 µM,[2]; [10],29%
same,inhibition at 5 µM,"[2]; Homo sapiens, Platelet, 5 μM, Expt. III",33%
same,inhibition at 10 µM,"[2]; Homo sapiens, Platelet, 10 μM, Expt. I",35%
same,inhibition at 10 µM,"[2]; Homo sapiens, Platelet, 10 μM, Expt. II",38%
same,inhibition at 10 µM,"[2]; Homo sapiens, Platelet, 10 μM, Expt. III",43%
same,inhibition at 25 µM,[2]; [11],55%
same,inhibition at 25 µM,[2]; [12],52%
same,inhibition at 25 µM,"[2]; Homo sapiens, Platelet, 25 μM, Expt. III",57%
same,inhibition at 50 µM,[2]; [13],60%
same,inhibition at 50 µM,[2]; [14],57%
same,inhibition at 50 µM,"[2]; Homo sapiens, Platelet, 50 μM, Expt. III",67%
same,inhibition at 100 µM,"[2]; Homo sapiens, Platelet, 100 μM, Expt. I",80%
same,inhibition at 100 µM,"[2]; Homo sapiens, Platelet, 100 μM, Expt. II",81%
same,inhibition at 100 µM,"[2]; Homo sapiens, Platelet, 100 μM, Expt. III",80%
same,IC50,"[2]; Homo sapiens, Platelet, incubation in whole blood",25 µM
same,Δ light transmission,"[3]; 2.5 μM, Expt. I",49 units
same,Δ light transmission,"[3]; 2.5 μM, Expt. II",50 units
same,Δ light transmission,"[3]; 5 μM, Expt. I",24 units
same,Δ light transmission,"[3]; 5 μM, Expt. II",20 units
same,Δ light transmission,"[3]; 15 μM, Expt. I",8 units
same,Δ light transmission,"[3]; 15 μM, Expt. II",7 units
same,Δ light transmission,"[3]; 25 μM, Expt. I",5 units
same,Δ light transmission,"[3]; 25 μM, Expt. II",5 units
same,Δ light transmission,"[3]; 50 μM, Expt. I",4 units
same,Δ light transmission,"[3]; 50 μM, Expt. II",3 units
same,inhibition at 2.5 µM,"[3]; Homo sapiens, Platelet, 2.5 μM, Expt. I",24.6%
same,inhibition at 2.5 µM,"[3]; Homo sapiens, Platelet, 2.5 μM, Expt. II",16.7%
same,inhibition at 5 µM,[3]; [9],63.1%
same,inhibition at 5 µM,[3]; [10],66.6%
same,inhibition at 15 µM,"[3]; Homo sapiens, Platelet, 15 μM, Expt. I",87.7%
same,inhibition at 15 µM,"[3]; Homo sapiens, Platelet, 15 μM, Expt. II",88.3%
same,inhibition at 25 µM,[3]; [11],92.4%
same,inhibition at 25 µM,[3]; [12],91.6%
same,inhibition at 50 µM,[3]; [13],93.8%
same,inhibition at 50 µM,[3]; [14],95%
same,IC50,"[3]; Homo sapiens, Platelet, Table 7, read-out: Inhibition of collagen-induced platelet aggregation, Activity IC50",3.5 µM
same,IC50,"[3]; incubation in human citrated platelet-rich plasma, read-out: IC50 collagen",3.5 µM
same,TD50 at 4 h,[4],> 250 mg/kg
same,ED50,[5],5 mg/kg
same,inhibition of human blood-platelet aggregation (in words),[6],inhibit prostaglandin formation and human blood-platelet aggregation
same,Δ light transmission,"[7]; 10 μM, Expt. I",45 units
same,Δ light transmission,"[7]; 10 μM, Expt. II",47 units
same,Δ light transmission,"[7]; 20 μM, Expt. I",30 units
same,Δ light transmission,"[7]; 20 μM, Expt. II",34 units
same,Δ light transmission,"[7]; 25 μM, Expt. I",25 units
same,Δ light transmission,"[7]; 25 μM, Expt. II",30 units
same,Δ light transmission,"[7]; 50 μM, Expt. I",18 units
same,Δ light transmission,"[7]; 50 μM, Expt. II",14 units
same,Δ light transmission,"[7]; 100 μM, Expt. I",11 units
same,Δ light transmission,"[7]; 100 μM, Expt. II",9 units
same,inhibition at 10 µM,"[7]; 10 μM, Expt. I",0%
same,inhibition at 10 µM,"[7]; 10 μM, Expt. II",6%
same,inhibition at 20 µM,"[7]; 20 μM, Expt. I",33.3%
same,inhibition at 20 µM,"[7]; 20 μM, Expt. II",32%
same,inhibition at 25 µM,"[7]; 25 μM, Expt. I",44.4%
same,inhibition at 25 µM,"[7]; 25 μM, Expt. II",40%
same,inhibition at 50 µM,"[7]; 50 μM, Expt. I",60%
same,inhibition at 50 µM,"[7]; 50 μM, Expt. II",71%
same,inhibition at 100 µM,"[7]; 100 μM, Expt. I",75%
same,inhibition at 100 µM,"[7]; 100 μM, Expt. II",82%
same,IC50,[7]; incubation in human citrated platelet-rich plasma,40 µM
same,ulcerogenicity (in words),[8],non-ulcerogenic
same,inhibition of prostaglandin formation (in words),prostaglandin formation,inhibit prostaglandin formation
